Laboratory results reported in patent US5318984A, “Imidazoles for the treatment of atherosclerosis” (priority 1992, dated 1994).

Biological target: T1, Acyl-CoA: Cholesterol Acyltransferase (ACAT) (Rattus norvegicus, UniProt Q7TQM4)
T1 construct: Microsomes were obtained by differential centrifugation; from tissue; host or cells: liver microsomes of male Sprague Dawley rats
T1 sequence (Q7TQM4 1-524): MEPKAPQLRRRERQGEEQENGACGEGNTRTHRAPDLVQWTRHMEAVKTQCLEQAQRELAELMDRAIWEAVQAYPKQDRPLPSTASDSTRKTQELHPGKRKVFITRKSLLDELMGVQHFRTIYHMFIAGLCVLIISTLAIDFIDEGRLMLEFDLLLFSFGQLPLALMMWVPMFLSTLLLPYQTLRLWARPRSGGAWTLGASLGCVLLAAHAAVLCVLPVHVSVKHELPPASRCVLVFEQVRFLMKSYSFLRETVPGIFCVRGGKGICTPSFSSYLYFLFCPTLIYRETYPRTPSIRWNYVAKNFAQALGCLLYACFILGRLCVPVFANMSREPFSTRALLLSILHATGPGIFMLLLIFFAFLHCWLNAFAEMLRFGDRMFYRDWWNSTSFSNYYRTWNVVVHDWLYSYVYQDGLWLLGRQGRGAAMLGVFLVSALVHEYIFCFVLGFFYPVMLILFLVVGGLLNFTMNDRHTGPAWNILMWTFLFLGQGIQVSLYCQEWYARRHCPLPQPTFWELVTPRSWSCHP
Assay: Inhibition of Acyl-CoA: Cholesterol Acyltransferase (ACAT) in Hepatic Microsomes
Format: biochemical, Sprague Dawley rats
Conditions: 14C-oleoyl-CoA, pH 7.4, 37° C., read-out: In Vitro ACAT IC50
Method: A. Assay of the Inhibition of Acyl-CoA: Cholesterol Acyltransferase (ACAT) in Hepatic Microsomes
The ability of the compounds to inhibit ACAT, the enzyme responsible for the intracellular synthesis of cholesteryl esters, was tested as follows. Male Sprague Dawley rats weighing 150-300 g, were fed rat chow ad libitum. The animals were fasted for twenty-four hours prior to being sacrificed by decapitation. The livers were perfused in situ with 50 ml of cold 0.25M sucrose, excised, and homogenized in three volumes of 0.1M phosphate buffer, pH 7.4, that contained 0.5 mM EDTA (ethylenediaminetetraacetic acid), 1.0 mM glutathione, 0.25M sucrose and […]. Microsomes were obtained by differential centrifugation; the supernatant from an initial spin at 15,000×g for 15 minutes was centrifuged at 105,000×g for 1 hour to pellet the microsomes. The microsomes were suspended in homogenization buffer, reisolated by centrifugation, and stored at -70° C. Microsomes were used within one month of preparation.
The control assay in a final volume of 200 μl consisted of 200 μg of microsomal protein, 75 μM ^14 C-oleoyl-CoA (10,000 dpm/nmol) in 0.1M phosphate, pH 7.4, that contained 1 mM glutathione. Compounds were added in 5 μl of DMSO (dimethyl sulfoxide) and additional controls were run with DMSO only. All components, except the oleoyl-CoA, were preincubated for 15 min. at 37° C. prior to the initiation of the reaction by the addition of oleoyl-CoA. The assay was terminated after 10 min by the addition of 4 ml of chloroform:methanol (2:1, v/v). 20,000 dpm of 3H-cholesteryl oleate and 10 μg of unlabeled cholesteryl oleate and oleic acid were added as an internal standard and carriers, respectively. After allowing 10 min. for lipid extraction, the samples were centrifuged at 1,000×g for 10 min. to separate the solvent layers. The chloroform layer containing the neutral lipids was spotted onto a Baker SI250-Pa silica gel TLC plate and the plate developed using a hexane: diethyl ether: acetic acid (170:30:1 v/v/v) mobile phase. The lipids were visualized by their interaction with iodine vapor and the cholesteryl ester spot was scraped into a scintillation vial and counted.

Going from `CCCCCCCN(CCCCCCc1nc(-c2ccccc2)c(-c2ccccc2)[nH]1)C(=O)Nc1ccc(F)cc1F` [Example 339, N'-(2,4-difluorophenyl)-N-[6-(4,5-diphenyl-1H-imidazol-2-yl)hexyl]-N-heptylurea] to `CCCCCCCN(CCCCCNc1nc(-c2ccccc2)c(-c2ccccc2)[nH]1)C(=O)Nc1ccc(F)cc1F` [Example 338, N' -(2,4-difluorophenyl)-N-[5-(4,5-diphenyl-1H-imidazol-2-ylamino)pentyl]-N-heptylurea], the IC50 rises from 280 nM to 3500 nM (12-fold).

Compared with `CCCCCCCN(CCCCCSc1nc(-c2ccccc2)c(-c2ccccc2)[nH]1)C(=O)Cc1ccc(-c2ccccc2)cc1` [Example 343, N-[5-(4,5-diphenyl-1H-imidazol-2-ylthio)pentyl]-N-heptyl[1,1'-biphenyl]-4-acetamide], `CCCCCCCN(CCCCCSc1nc(-c2ccccc2)c(-c2ccccc2)[nH]1)C(=O)Nc1ccc(-c2ccccc2)cc1` [Example 192, N'-[(1,1'-biphenyl)-4-yl]-N-[5-(4,5-diphenyl-b 1H-imidazol-2-ylthio)pentyl]-N-heptylurea] is 2.3-fold lower in IC50: 160 nM for the first, 70 nM for the second.

Going from `CCCCCCCN(CCCCCCCCSc1nc(-c2ccccc2)c(-c2ccccc2)[nH]1)C(=O)Nc1ccc(F)cc1F` [Example 3, N'-(2,4-difluorophenyl)-N-[8-(4,5-diphenyl-1H-imidazol-2-ylthio)octyl]-N-heptylurea] to `CCCCCCCN(CCCCCSc1nc(-c2ccccc2)c(-c2ccccc2)[nH]1)C(=S)Nc1ccc(F)cc1F` [Example 276, N'-(2,4-difluorophenyl]-N-[5-(4,5-diphenyl-1H-imidazol-2-ylthio)pentyl]-N-heptylthiourea], the IC50 rises from 8 nM to 58 nM (7.2-fold). The first is the more potent here.

Going from `CCCCCCCN(CCCCCSc1nc(-c2ccccc2)c(-c2ccccc2)[nH]1)C(=O)Nc1c(C(C)C)cccc1C(C)C` [Example 266] to `CCCCCCCN(CCCCCSc1nc(-c2ccccc2)c(-c2ccccc2)[nH]1)C(=O)NC(C)C` [Example 105, N-[5-(4,5-diphenyl-1H-imidazol-2-ylthio)pentyl]-N-heptyl-N'-(1-methylethyl)urea], the IC50 falls from 230 nM to 20 nM (12-fold).

First: CCCCCCCN(CCCCCSc1nc(-c2ccccc2)c(-c2ccccc2)[nH]1)C(=O)CC1CCCCC1 [Example 344]
Second: CCCCCCCN(CCCCCSc1nc(-c2ccccc2)c(-c2ccccc2)[nH]1)C(=O)OC1CCCCC1 [Example 401, cyclohexyl [5-(4,5-diphenyl-1H-imidazol-2-ylthio)pentyl]heptylcarbamate]
The IC50 of the first is 1.7-fold lower: 30 nM for the first, 50 nM for the second.

Compared with `CCCCCCCN(CCCCCSc1nc(-c2ccccc2)c(-c2ccccc2)[nH]1)C(=S)Nc1c(F)cc(F)cc1F` [Example 298, N-[5-(4,5-diphenyl-1H-imidazol-2-ylthio)pentyl]N-heptyl-N'-(2,4,6-trifluorophenyl)thiourea], `CCCCCCCN(CCCCCSc1nc(-c2ccccc2)c(-c2ccccc2)[nH]1)C(=O)c1ccc(F)cc1F` [Example 345] is 2-fold higher in IC50: 30 nM for the first, 60 nM for the second.

Compared with `CCCCCCCN(CCCCCS(=O)(=O)c1nc(-c2ccccc2)c(-c2ccccc2)[nH]1)C(=O)Nc1ccc(F)cc1F` [Example 281, N'-(2,4-difluorophenyl)-N-[5-[(4,5-diphenyl-1H-imidazol-2-yl)sulfonyl]pentyl]-N-heptylurea], `CCCCCCCN(CCCCC[S+]([O-])c1nc(-c2ccccc2)c(-c2ccccc2)[nH]1)C(=O)Nc1ccc(F)cc1F` (stereo not drawn) [Example 278, N'-(2,4-difluorophenyl)-N-[5-(4,5-diphenyl-1H-imidazol-2-ylsulfinyl)pentyl]-N-heptylurea] is 2-fold lower in IC50: 16 nM for the first, 8 nM for the second.

First: CCCCCCCCNC(=O)N(CCCCCSc1nc(-c2ccccc2)c(-c2ccccc2)[nH]1)c1c(F)cc(F)cc1F [Example 208]
Second: CCCCCCCCNC(=O)N(CCCCCSc1nc(-c2ccccc2)c(-c2ccccc2)[nH]1)c1ccc(F)cc1F [Example 206, N-(2,4-difluorophenyl)-N-[5-(4,5-diphenyl-1H-imidazol-2-ylthio)pentyl]-N'-octylurea]
The IC50 of the first is 2-fold lower: 20 nM for the first, 40 nM for the second.

`CCCCCCCN(CCCCCSc1nc(-c2ccccc2)c(-c2ccccc2)[nH]1)C(=O)NCCC` [Example 8, N-[5-(4,5-diphenyl-1H-imidazol-2-ylthio)pentyl]-N-heptyl-N'-propylurea] and `CCCCCCCN(CCCCCSc1nc(-c2ccccc2)c(-c2ccccc2)[nH]1)C(=O)NC1CCCCC1` [Example 94, N'-cyclohexyl-N-[5-(4,5-diphenyl-1H-imidazol-2-ylthio)pentyl]-N-heptylurea] are the same in IC50: 10 nM for the first, 10 nM for the second.

Going from `CC(C)NC(=O)N(CCCCCSc1nc(-c2ccccc2)c(-c2ccccc2)[nH]1)c1ccccc1` [Example 261] to `CC(C)NC(=O)N(CCCCCSc1nc(-c2ccccc2)c(-c2ccccc2)[nH]1)c1ccc(F)cc1F` [Example 263], the IC50 falls from 80 nM to 40 nM (2-fold). The second is the more potent here.

Compared with `CCCCCCCN(CCCCCSc1nc(-c2ccccc2)c(-c2ccccc2)n1C)C(=O)Nc1ccc(F)cc1F` [Example 6, N'-(2,4-difluorophenyl)-N-heptyl-N-[5-(1-methyl-4,5-diphenyl-1H-imidazol-2-ylthio]pentyl]urea], `CCCCCCCN(CCSc1nc(-c2ccccc2)c(-c2ccccc2)[nH]1)C(=O)Nc1ccc(F)cc1F` [Example 189, N'-(2,4-difluorophenyl)-N-[2-(4,5-diphenyl-1H-imidazol-2-ylthio)ethyl]-N-heptylurea] is 51-fold lower in IC50: 3600 nM for the first, 70 nM for the second. The second is the more potent here.

`CCCCCCCN(CCCCCSc1nc(-c2ccccc2)c(-c2ccccc2)[nH]1)C(=O)Cc1ccc(F)cc1F` [Example 340, 2,4-difluoro-N-[(5-(4,5-diphenyl-1H-imidazol-2-ylthio)pentyl)]-N-heptylbenzeneacetamide] and `CCCN(CCCCCSc1nc(-c2ccccc2)c(-c2ccccc2)[nH]1)C(=O)Nc1ccc(F)cc1F` [Example 190] are within 1.5-fold of each other in IC50: 25 nM for the first, 30 nM for the second.

Going from `CCCCCCCN(CCCCCSc1nc(-c2ccccc2)c(-c2ccccc2)[nH]1)C(=O)c1ccccc1` [Example 346] to `CCCCCCCN(CCCCCSc1nc(-c2ccccc2)c(-c2ccccc2)[nH]1)C(=O)Oc1ccccc1` [Example 402, Phenyl [5-(4,5-diphenyl-1H-imidazol-2-ylthio)pentyl]heptylcarbamate], the IC50 falls from 50 nM to 20 nM (2.5-fold).

With `CCCCCCCN(CCCCCSc1nc(-c2ccccc2)c(-c2ccccc2)[nH]1)C(=N)Nc1ccccc1` [Example 499, N-[5-(4,5-diphenyl-1H-imidazol-2-ylthio)pentyl]-N-heptyl-N'-phenylguanidin] the IC50 was 3160 nM.
